pIC50: −log10 of the molar value.
Experiments:
NLRP3 [1] = biological target: T1, NLRP3 (Homo sapiens, UniProt Q96P20); assay: THP-1 cells pyroptosis assay; assay type: cell-based; design: Seed THP-1 cells (25,000 cells/well) containing 1.0 μg/ml LPS; host or cells: THP-1 cells, LPS-primed, nigericin-stimulated; details: 1.0 μg/ml LPS, nigericin 5 μM, resazurin readout
Text: It is well established that the activation of NLRP3 leads to cell pyroptosis and this feature plays an important part in the manifestation of clinical disease (Yan-gang Liu et al., Cell Death & Disease, 2017, 8(2), e2579; Alexander Wree et al., Hepatology, 2014, 59(3), 898-910; Alex Baldwin et al., Journal of Medicinal Chemistry, 2016, 59(5), 1691-1710; Ema Ozaki et al., Journal of Inflammation Research, 2015, 8, 15-27; Zhen Xie & Gang Zhao, Neuroimmunology Neuroinflammation, 2014, 1(2), 60-65; Mattia Cocco et al., Journal of Medicinal Chemistry, 2014, 57(24), 10366-10382; T. Satoh et al., Cell Death & Disease, 2013, 4, e644). Therefore, it is anticipated that inhibitors of NLRP3 will block pyroptosis, as well as the release of pro-inflammatory cytokines (e.g. IL-1β) from the cell.
THP-1 cells (ATCC #TIB-202) were grown in RPMI containing L-glutamine (Gibco #11835) supplemented with 1 mM sodium pyruvate (Sigma #S8636) and penicillin (100 units/ml)/streptomycin (0.1 mg/ml) (Sigma #P4333) in 10% Fetal Bovine Serum (FBS) (Sigma #F0804). The cells were routinely passaged and grown to confluency (˜10^6 cells/ml). On the day of the experiment, THP-1 cells were harvested and resuspended into RPMI medium (without FBS). The cells were then counted and viability (>90%) checked by Trypan blue (Sigma #T8154). Appropriate dilutions were made to give a concentration of 625,000 cells/ml. To this diluted cell solution was added LPS (Sigma #L4524) to give a 1 μg/ml Final Assay Concentration (FAC). 40 μl of the final preparation was aliquoted into each well of a 96-well plate. The plate thus prepared was used for compound screening.
The following method step-by-step assay was followed for compound screening. • 1. Seed THP-1 cells (25,000 cells/well) containing 1.0 μg/ml LPS in 40 μl of RPMI medium (without FBS) in 96-well, black walled, clear bottom cell culture plates coated with poly-D-lysine (VWR #734-0317) • 2. Add […] compound (8 points half-log dilution, with 10 μM top dose) or vehicle (DMSO 0.1% FAC) to the appropriate wells • 3. Incubate for 3 hrs at 37° C. in 5% CO2 • 4. Add 5 μl nigericin (Sigma #N7143) (FAC 5 μM) to all wells • 5. Incubate for 1 hr at 37° C. and 5% CO2 • 6. At the end of the incubation period, spin plates at 300×g for 3 mins and remove supernatant • 7. Then add 50 μl of resazurin (Sigma #R7017) (FAC 100 μM resazurin in RPMI medium without FBS) and incubate plates for a further 1-2 hrs at 37° C. and 5% CO2 • 8. Plates were read in an Envision reader at Ex 560 nm and Em 590 nm • 9. IC50 data is fitted to a non-linear regression equation (log inhibitor vs response-variable slope 4-parameters)

NLRP3 [2] = biological target: T1, NLRP3; assay: Human whole blood IL1β release assay; assay type: cell-based; design: Plate out 80 μl of whole blood containing 1 μg/ml of LPS; from tissue; host or cells: human whole blood from healthy donors, LPS-primed, nigericin-stimulated; details: 1 μg/ml LPS, nigericin 10 μM, IL-1β by AlphaLisa, read-out: HWB IC50
Procedure: For systemic delivery, the ability to inhibit NLRP3 when the compounds are present within the bloodstream is of great importance. For this reason, the NLRP3 inhibitory activity of a number of compounds in human whole blood was investigated in accordance with the following protocol.
Human whole blood in Li-heparin tubes was obtained from healthy donors from a volunteer donor panel. • 1. Plate out 80 μl of whole blood containing 1 μg/ml of LPS in 96-well, clear bottom cell culture plate (Corning #3585) • 2. Add 10 μl compound (8 points half-log dilution with 10 μM top dose) or vehicle (DMSO 0.1% FAC) to the appropriate wells • 3. Incubate for 3 hrs at 37° C., 5% CO2 • 4. Add 10 μl Nigericin (Sigma #N7143) (10 μM FAC) to all wells • 5. Incubate for 1 hr at 37° C., 5% CO2 • 6. At the end of the incubation period, spin plates at 300×g for 5 mins to pellet cells and remove 20 μl of supernatant and add to 96-well v-bottom plates for IL-1β analysis (note: these plates containing the supernatants can be stored at −80° C. to be analysed at a later date) • 7. IL-1β was measured according to the manufacturer protocol (Perkin Elmer-AlphaLisa IL-1 Kit AL220F-5000) • 8. IC50 data is fitted to anon-linear regression equation (log inhibitor vs response-variable slope 4-parameters)

T1 sequence (Q96P20 whole entry): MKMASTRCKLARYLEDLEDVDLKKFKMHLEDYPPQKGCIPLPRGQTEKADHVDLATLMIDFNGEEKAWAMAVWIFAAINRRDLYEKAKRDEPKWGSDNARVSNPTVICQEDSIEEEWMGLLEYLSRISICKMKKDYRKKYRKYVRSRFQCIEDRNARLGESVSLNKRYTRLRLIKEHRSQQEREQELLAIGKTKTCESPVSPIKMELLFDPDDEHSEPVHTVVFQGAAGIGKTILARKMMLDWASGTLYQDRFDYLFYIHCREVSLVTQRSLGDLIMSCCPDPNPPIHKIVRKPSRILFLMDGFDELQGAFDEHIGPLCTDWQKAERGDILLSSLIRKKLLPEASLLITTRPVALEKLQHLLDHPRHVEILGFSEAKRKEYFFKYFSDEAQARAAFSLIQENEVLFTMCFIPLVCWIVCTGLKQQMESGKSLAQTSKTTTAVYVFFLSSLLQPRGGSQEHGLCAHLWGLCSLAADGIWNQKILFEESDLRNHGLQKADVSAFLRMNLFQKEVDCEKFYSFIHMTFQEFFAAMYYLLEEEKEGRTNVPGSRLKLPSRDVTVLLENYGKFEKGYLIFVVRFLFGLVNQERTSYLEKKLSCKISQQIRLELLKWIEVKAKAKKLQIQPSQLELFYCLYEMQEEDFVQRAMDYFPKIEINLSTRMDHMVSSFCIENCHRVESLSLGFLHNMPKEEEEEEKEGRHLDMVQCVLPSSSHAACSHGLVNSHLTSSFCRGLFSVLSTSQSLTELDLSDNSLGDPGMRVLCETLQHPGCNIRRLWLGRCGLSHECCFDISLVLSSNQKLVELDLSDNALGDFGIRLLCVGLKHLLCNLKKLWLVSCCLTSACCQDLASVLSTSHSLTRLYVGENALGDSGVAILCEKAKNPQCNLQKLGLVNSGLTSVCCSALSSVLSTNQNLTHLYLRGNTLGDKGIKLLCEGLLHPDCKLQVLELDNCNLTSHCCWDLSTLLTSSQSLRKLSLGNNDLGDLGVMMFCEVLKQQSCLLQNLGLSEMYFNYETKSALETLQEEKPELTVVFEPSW

Compound	pIC50 (NLRP3 [1])	pIC50 (NLRP3 [2])
CC(C)c1cccc(C(C)C)c1NC(=O)NS(=O)(=O)c1cc(C(=O)N(C)C(C)C)n(C)n1 [Example 58, 3-(N-((2,6-Diisopropylphenyl)carbamoyl)sulfamoyl)-N-isopropyl-N,1-dimethyl-1H-pyrazole-5-carboxamide]	6.19 to 6.80	6.10 to 6.40
CCN(C)C(=O)c1cc(S(=O)(=O)NC(=O)Nc2c(C(C)C)cccc2C(C)C)nn1C [Example 56, 3-(N-((2,6-Diisopropylphenyl)carbamoyl)sulfamoyl)-N-ethyl-N,1-dimethyl-1H-pyrazole-5-carboxamide]	5.59 to 6.19	5.49 to 5.80
COc1cc(-c2ccc3c(c2NC(=O)NS(=O)(=O)c2ccn(C(C)(C)C(=O)N(C)C)n2)CCC3)ccn1 [Example 84]	> 7.40	> 6.40
CN(CCCO)C(=O)c1cc(S(=O)(=O)NC(=O)Nc2c3c(cc4c2CCC4)CCC3)nn1C [Example 18, 3-(N-((1,2,3,5,6,7-Hexahydro-s-indacen-4-yl)carbamoyl)sulfamoyl)-N-(3-hydroxypropyl)-N,1-dimethyl-1H-pyrazole-5-carboxamide]	6.19 to 6.80	5.49 to 5.80
CC(C)c1cccc(C(C)C)c1NC(=O)NS(=O)(=O)c1cc(C(=O)N2CC(F)C2)n(C)n1 [Example 39, N-((2,6-Diisopropylphenyl)carbamoyl)-5-(3-fluoroazetidine-1-carbonyl)-1-methyl-1H-pyrazole-3-sulfonamide]	5.59 to 6.19	5.80 to 6.10
COCCN(C)C(=O)c1cc(S(=O)(=O)NC(=O)Nc2c(C(C)C)cccc2C(C)C)nn1C [Example 22, 3-(N-((2,6-Diisopropylphenyl)carbamoyl)sulfamoyl)-N-(2-methoxyethyl)-N,1-dimethyl-1H-pyrazole-5-carboxamide]	5.00 to 5.59	–
CC(C)c1cc(F)cc(-c2cccnc2)c1NC(=O)NS(=O)(=O)c1cc(C(=O)N(C)C)n(C)n1 [Example 41, 3-(N-((4-Fluoro-2-isopropyl-6-(pyridin-3-yl)phenyl)carbamoyl)sulfamoyl)-N,N,1-trimethyl-1H-pyrazole-5-carboxamide]	–	> 6.40
CC(=O)N1CC(n2ccc(S(=O)(=O)NC(=O)Nc3c4c(cc5c3CCC5)CCC4)n2)C1 [Example 3, 1-(1-Acetylazetidin-3-yl)-N-((1,2,3,5,6,7-hexahydro-s-indacen-4-yl)carbamoyl)-1H-pyrazole-3-sulfonamide]	5.59 to 6.19	–
COC1CCN(C(=O)c2cc(S(=O)(=O)NC(=O)Nc3c4c(cc5c3CCC5)CCC4)nn2C)C1 (stereo not drawn) [Example 25, N-((1,2,3,5,6,7-Hexahydro-s-indacen-4-yl)carbamoyl)-5-(3-methoxypyrrolidine-1-carbonyl)-1-methyl-1H-pyrazole-3-sulfonamide]	5.00 to 5.59	–

Further lines, results first:

pIC50 (NLRP3 [1])	pIC50 (NLRP3 [2])	Compound
6.19 to 6.80	6.10 to 6.40	CCN(C)C(=O)c1cc(S(=O)(=O)NC(=O)Nc2c(C(C)C)cc(F)cc2C(C)C)nn1C [Example 49, N-Ethyl-3-(N-((4-fluoro-2,6-diisopropylphenyl)carbamoyl)sulfamoyl)-N,1-dimethyl-1H-pyrazole-5-carboxamide]
5.59 to 6.19	> 6.40	CC(C)c1cc(F)cc(-c2cnn(C)c2)c1NC(=O)NS(=O)(=O)c1cc(C(=O)N(C)C)n(C)n1 [Example 35, 3-(N-((4-Fluoro-2-isopropyl-6-(1-methyl-H-pyrazol-4-yl)phenyl)carbamoyl)sulfamoyl)-N,N,1-trimethyl-1H-pyrazole-5-carboxamide]
5.00 to 5.59	5.00 to 5.49	COCCN(CCOC)C(=O)c1cc(S(=O)(=O)NC(=O)Nc2c(-c3ccnc(OC(C)C)c3)cc(F)cc2C(C)C)nn1C [Example 79, 3-(N-((4-Fluoro-2-(2-isopropoxypyridin-4-yl)-6-isopropyl-phenyl)carbamoyl)sulfamoyl)-N,N-bis(2-methoxyethyl)-1-methyl-1H-pyrazole-5-carboxamide]
6.80 to 7.40	6.10 to 6.40	CC(=O)N(C)Cc1cc(S(=O)(=O)NC(=O)Nc2c3c(cc4c2CCC4)CCC3)nn1C(C)C [Example 29, N-((3-(N-((1,2,3,5,6,7-Hexahydro-s-indacen-4-yl)carbamoyl)sulfamoyl)-1-isopropyl-1H-pyrazol-5-yl)methyl)-N-methylacetamide]
6.19 to 6.80	> 6.40	COCCN(CCOC)C(=O)c1cc(S(=O)(=O)NC(=O)Nc2c(-c3ccnc(OC)c3)ccc3c2CCC3)nn1C [Example 80, N,N-Bis(2-methoxyethyl)-3-(N-((5-(2-methoxypyridin-4-yl)-2,3-dihydro-1H-inden-4-yl)carbamoyl)sulfamoyl)-1-methyl-1H-pyrazole-5-carboxamide]
–	6.10 to 6.40	CC(C)c1cc(F)cc(C2CCOCC2)c1NC(=O)NS(=O)(=O)c1cc(C(=O)N(C)C)n(C)n1 [Example 33, 3-(N-((4-Fluoro-2-isopropyl-6-(tetrahydro-2H-pyran-4-yl)phenyl)carbamoyl)sulfamoyl)-N,N,1-trimethyl-1H-pyrazole-5-carboxamide]
5.00 to 5.59	–	CN1CCn2nc(S(=O)(=O)NC(=O)Nc3c4c(cc5c3CCC5)CCC4)cc2C1=O [Example 4, N-((1,2,3,5,6,7-Hexahydro-s-indacen-4-yl)carbamoyl)-5-methyl-4-oxo-4,5,6,7-tetrahydropyrazolo[1,5-a]pyrazine-2-sulfonamide]
5.00 to 5.59	–	CC(=O)N(C)CCN(C)C(=O)c1cc(S(=O)(=O)NC(=O)Nc2c3c(cc4c2CCC4)CCC3)nn1C [Example 12, 3-(N-((1,2,3,5,6,7-Hexahydro-s-indacen-4-yl)carbamoyl)sulfamoyl)-N,1-dimethyl-N-(2-(N-methylacetamido)ethyl)-1H-pyrazole-5-carboxamide]
5.59 to 6.19	–	Cn1nc(S(=O)(=O)NC(=O)Nc2c3c(cc4c2CCC4)CCC3)cc1C(=O)N1CC(F)C1 [Example 61, 5-(3-Fluoroazetidine-1-carbonyl)-N-((1,2,3,5,6,7-hexahydro-s-indacen-4-yl)carbamoyl)-1-methyl-1H-pyrazole-3-sulfonamide]
5.00 to 5.59	–	COCCNC(=O)c1cc(S(=O)(=O)NC(=O)Nc2c3c(cc4c2CCC4)CCC3)nn1C [Example 77, 3-(N-((1,2,3,5,6,7-Hexahydro-s-indacen-4-yl)carbamoyl)sulfamoyl)-N-(2-methoxyethyl)-1-methyl-1H-pyrazole-5-carboxamide]
5.59 to 6.19	–	CN(C(=O)c1cc(S(=O)(=O)NC(=O)Nc2c3c(cc4c2CCC4)CCC3)nn1C)C1COC1 [Example 17, 3-(N-((1,2,3,5,6,7-Hexahydro-s-indacen-4-yl)carbamoyl)sulfamoyl)-N,1-dimethyl-N-(oxetan-3-yl)-1H-pyrazole-5-carboxamide]

Reference: patent publication US20210122739A1, “NOVEL SULFONAMIDE CARBOXAMIDE COMPOUNDS” (Inflazome Limited, priority 2017, published 2021)
